Data from ChEMBL document CHEMBL5614413, “Design, synthesis and biological evaluation of amphiphilic benzopyran derivatives as potent antibacterial agents against multidrug-resistant bacteria” (Eur J Med Chem, 2024).
Values after ≈ are worked out from the molar mass of the structure shown. Active and inactive are the calls of the source. No cut-off for these calls is given here.

Legend:
[1] = test system: Cell membrane; assay: Induction of cytoplasmic membrane permeabilization in methicillin-resistant Staphylococcus aureus ATCC 43300 assessed as increase fluorescence intensity at 16 microg/ml by PI staining based fluorescence analysis; format: cell membranes; settings: dose 16.0 µg/ml
[2] = test system: Staphylococcus aureus; assay: Bactericidal activity against methicillin-resistant Staphylococcus aureus ATCC 43300 in presence of 50% human blood by Mueller Hinton broth based assay; format: functional; settings: ATCC 43300, Blood, time <= 6 hrs
[3] = test system: Klebsiella pneumoniae; assay: Antibacterial activity against Klebsiella pneumoniae ATCC 10031; format: functional
[4] = test system: Staphylococcus aureus; assay: Bactericidal activity against methicillin-resistant Staphylococcus aureus ATCC 43300 assessed as log reduction in bacterial growth at 16 times of MIC measured after 4 hrs by time killing analysis; format: functional
[5] = test system: Staphylococcus aureus; assay: Disruption of preformed biofilm in methicillin-resistant Staphylococcus aureus ATCC 43300 assessed as eradication of biofilm by crystal violet staining method; format: functional, organism-based; settings: dose 2-64 µg/ml
[6] = test system: Cell membrane; assay: Disruption of cell membrane in methicilin-resistant Staphylococcus aureus ATCC 43300 assessed as appearance of collapsed cell membrane by scanning electron microscopic analysis; format: cell membranes
[7] = test system: Enterococcus faecalis; assay: Antibacterial activity against vancomycin-susceptible Enterococcus faecalis ATCC 29212; format: functional
[8] = test system: Acinetobacter baumannii; assay: Antibacterial activity against Acinetobacter baumannii ATCC 19606; format: functional
[9] = test system: Staphylococcus aureus; assay: Disruption of preformed biofilm in methicillin-resistant Staphylococcus aureus ATCC 43300 assessed as eradication of biofilm at 64 microg/ml by crystal violet staining based analysis relative to control; format: functional; settings: dose 64 µg/ml
[10] = Selectivity index, ratio of HC50 for hemolytic activity in sheep RBC to MIC for antibacterial activity against methicillin-resistant Staphylococcus aureus ATCC 43300; format: toxicity; settings: sheep red blood cells (erythrocytes), read-out: Selectivity Index
[11] = test system: Cell membrane; assay: Disruption of cell membrane in methicillin-resistant Staphylococcus aureus ATCC 43300 assessed as appearance of broken surface by scanning electron microscopic analysis; format: cell membranes
[12] = test system: Staphylococcus aureus; assay: Antibacterial activity against methicillin-resistant Staphylococcus aureus ATCC 43300; format: functional
[13] = test system: Staphylococcus aureus; assay: Antibacterial activity against erythromycin-susceptible Staphylococcus aureus ATCC 25923; format: functional
[14] = test system: Staphylococcus aureus; assay: Inhibition of biofilm formation in methicillin-resistant Staphylococcus aureus ATCC 43300; format: functional, organism-based; settings: dose 2-32 µg/ml
[15] = Hemolytic activity in sheep RBC; format: toxicity, cell-based, Ovis aries, Erythrocyte; settings: sheep red blood cells (erythrocytes)
[16] = test system: Staphylococcus aureus; assay: Inhibition of biofilm formation in methicillin-resistant Staphylococcus aureus ATCC 43300 at 8 microg/ml relative to control; format: functional
[17] = test system: Staphylococcus aureus; assay: Inhibition of biofilm formation in methicillin-resistant Staphylococcus aureus ATCC 43300 at 16 microg/ml relative to control; format: functional
[18] = test system: Staphylococcus aureus; assay: Bacteriostatic activity against methicillin-resistant Staphylococcus aureus ATCC 43300 assessed as inhibition of bacterial growth at 1 times of MIC measured after 24 hrs by time-kill kinetic analysis; format: functional, organism-based
[19] = test system: Staphylococcus aureus; assay: Bactericidal activity against methicillin-resistant Staphylococcus aureus ATCC 43300 assessed as bacterial eradication at 16 times of MIC measured at 8 hrs by time kill kinetics analysis relative to control; format: functional
[20] = test system: Staphylococcus aureus; assay: Selectivity ratio of MBC for bactericidal activity against methicillin-resistant Staphylococcus aureus ATCC 43300 in presence of 50% human blood to MBC for bactericidal activity against methicillin-resistant Staphylococcus aureus ATCC 43300; format: functional
[21] = test system: Staphylococcus aureus; assay: Bactericidal activity against methicillin-resistant Staphylococcus aureus ATCC 43300 in presence of 50% human serum by Mueller Hinton broth based assay; format: functional
[22] = test system: Cell membrane; assay: Disruption of cell membrane in methicilin-resistant Staphylococcus aureus ATCC 43300 assessed as appearance of wrinkled cell membrane by scanning electron microscopic analysis; format: cell membranes
[23] = test system: Staphylococcus aureus; assay: Antibacterial activity against penicillin-resistant Staphylococcus aureus ATCC 31007; format: functional
[24] = test system: Staphylococcus aureus; assay: Selectivity ratio of MBC for bactericidal activity against methicillin-resistant Staphylococcus aureus ATCC 43300 in presence of 50% human serum to MBC for bactericidal activity against methicillin-resistant Staphylococcus aureus ATCC 43300; format: functional
[25] = test system: Staphylococcus aureus; assay: Induction of ROS production in methicillin-resistant Staphylococcus aureus ATCC 43300 assessed as fold increase in ROS level at 32 microg/ml by DCFH-DA staining based analysis; settings: dose 32 µg/ml
[26] = test system: Bacillus subtilis; assay: Antibacterial activity against penicillin-susceptible Bacillus subtilis ATCC 9372; format: functional
[27] = test system: Staphylococcus aureus; assay: Inhibition of biofilm formation in methicillin-resistant Staphylococcus aureus ATCC 43300 at 2 microg/ml relative to control; format: functional
[28] = test system: Staphylococcus aureus; assay: Bactericidal activity against methicillin-resistant Staphylococcus aureus ATCC 43300 in presence of 50% human plasma by Mueller Hinton broth based assay; format: functional
[29] = test system: Staphylococcus aureus; assay: Drug resistance, ratio of MIC for methicillin-resistant Staphylococcus aureus ATCC 43300 after 20 passages to MIC for methicillin-resistant Staphylococcus aureus ATCC 43300 during first exposure; format: functional
[30] = test system: Cell membrane; assay: Induction of cytoplasmic membrane depolarization in methicillin-resistant Staphylococcus aureus ATCC 43300 assessed as increase in fluorescence intensity at 2 microg/ml by DiSC3(5) dye-based fluorescence assay; format: cell membranes; settings: dose 2.0 µg/ml
[31] = test system: Staphylococcus aureus; assay: Antibacterial activity against methicillin-resistant Staphylococcus aureus ATCC 43300 at 1/2 times of MIC measured after 20 passage; format: functional, organism-based
[32] = test system: Cell membrane; assay: Induction of cytoplasmic membrane depolarization in methicillin-resistant Staphylococcus aureus ATCC 43300 assessed as increase in fluorescence intensity by DiSC3(5) dye-based fluorescence assay; format: cell membranes
[33] = test system: Escherichia coli; assay: Antibacterial activity against penicillin-susceptible Escherichia coli ATCC 25922; format: functional
[34] = test system: Staphylococcus epidermidis; assay: Antibacterial activity erythromycin-susceptible Staphylococcus epidermidis ATCC 12228; format: functional
[35] = test system: Cell membrane; assay: Induction of cell membrane disruption in methicillin-resistant Staphylococcus aureus ATCC 43300 assessed as increase in DNA leakage; format: cell membranes
[36] = test system: Staphylococcus aureus; assay: Bactericidal activity against methicillin-resistant Staphylococcus aureus ATCC 43300 assessed as reduction in bacterial growth; format: functional, organism-based
[37] = test system: Staphylococcus aureus; assay: Bactericidal activity against methicillin-resistant Staphylococcus aureus ATCC 43300 by Mueller Hinton broth based assay; format: functional; settings: time <= 6 hrs
[38] = test system: Staphylococcus aureus; assay: Selectivity ratio of MBC for bactericidal activity against methicillin-resistant Staphylococcus aureus ATCC 43300 preincubated with 50% human plasma upto 6 hrs to MBC for bactericidal activity against methicillin-resistant Staphylococcus aureus ATCC 43300; format: functional
[39] = test system: Staphylococcus aureus; assay: Disruption of preformed biofilm in methicillin-resistant Staphylococcus aureus ATCC 43300 assessed as eradication of biofilm at 8 microg/ml by crystal violet staining based analysis relative to control; format: functional; settings: dose 8 µg/ml
[40] = test system: Cell membrane; assay: Disruption of cell membrane integrity in methicillin-resistant Staphylococcus aureus ATCC 43300 assessed as appearance of red fluorescence by DAPI/PI staning based microscopic analysis; format: cell membranes
[41] = test system: Cell membrane; assay: Induction of cell membrane disruption in methicillin-resistant Staphylococcus aureus ATCC 43300 assessed as increase in protein leakage; format: cell membranes
[42] = test system: Staphylococcus aureus; assay: Bacteriostatic activity against methicillin-resistant Staphylococcus aureus ATCC 43300 assessed as inhibition of bacterial growth at 2 times of MIC measured after 24 hrs by time-kill kinetic analysis; format: functional, organism-based
[43] = test system: Cell membrane; assay: Disruption of cell membrane integrity in methicillin-resistant Staphylococcus aureus ATCC 43300 assessed as appearance of blue fluorescence by DAPI/PI staining based microscopic analysis; format: cell membranes
[44] = test system: Pseudomonas aeruginosa; assay: Antibacterial activity against penicillin-susceptible Pseudomonas aeruginosa ATCC 27853; format: functional

CCN(CC)CCCNCCCOc1ccc(/C=C/C(=O)c2ccc3c(c2OC)C=CC(C)(CCC=C(C)C)O3)cc1 (centres undefined)
Activity [1]: Active | MBC [2]: 64 µg/mL | MIC [3]: 4 µg/mL (≈ 6.96 µM) | log(activity) [4]: 6 | Activity [5]: Dose-Dependent Effect | Activity [6]: Active | MIC [7]: 2 µg/mL (≈ 3.48 µM) | MIC [8]: 8 µg/mL (≈ 13.9 µM) | Activity [9]: >40% | selectivity ratio [10]: 135 | Activity [11]: Active | MIC [12]: 2 µg/mL (≈ 3.48 µM) | MIC [13]: 2 µg/mL (≈ 3.48 µM) | inhibition [14]: Dose-Dependent Effect | HC50 [15]: 270 µg/mL | inhibition at 8 µg/mL [16]: 91.6% | inhibition at 16 µg/mL [17]: > 92% | Activity [18]: Active | Activity [19]: 100% | selectivity ratio [20]: 2 | MBC [21]: 32 µg/mL | Activity [22]: Active | MIC [23]: 1 µg/mL (≈ 1.74 µM) | selectivity ratio [24]: 2 | fold change (FC) [25]: 14 | MIC [26]: 1 µg/mL (≈ 1.74 µM) | inhibition at 2 µg/mL [27]: 21.2% | MBC [28]: 32 µg/mL | Ratio [29]: 2 | Activity [30]: inactive | Activity [31]: Active | Activity [32]: Dose-Dependent Effect | MIC [33]: 2 µg/mL (≈ 3.48 µM) | MIC [34]: 1 µg/mL (≈ 1.74 µM) | Activity [35]: Active | Activity [36]: Dose-Dependent Effect | MBC [37]: 32 µg/mL (≈ 55.7 µM) | selectivity ratio [38]: <2 | Activity [39]: 19.12% | Activity [40]: Active | Activity [41]: Active | Activity [42]: Active | Activity [43]: Active | MIC [44]: 64 µg/mL (≈ 111 µM)
